# Source: patent publication US7745576B2, “Polypeptides having antimicrobial activity and polynucleotides encoding same” (Novozymes Adenium Biotech A/S, priority 2005, dated 2010)
# Tests used:
# Format in all cases: cell-based
# [1] = test system: Candida tropicalis DSM 11953; assay: MIC against clinical fungi, PD broth dilution; conditions: 25-27° C., approximately 40 hours
# Description: (§1) Minimal inhibitory concentrations of Arenicin against yeasts and fungi were determined essentially as described by NCCLS/CLSI (clinical and laboratory standards institute).
# (§2) In summary, fungal or yeasts suspension of approximately 1 McFarland unit was diluted 1:100 in PD broth (8 g/L potato dextrose) and growth was assayed against serial 2-fold dilutions of Arenicin (0.03-32 micrograms/mL). Assay plates were incubated at 25-27° C. for Candida albicans, Candida tropicalis, Cryptococcus neoformans, Trichophyton mentagrophytes and Epidermophyton floccosum, and at 30° C. for Candida glabrata, Pichia pastoris, Saccharomyces cerevisiae and Aspergillus niger. Growth was recorded visually (naked eye, oblique illumination) after approximately 40 hours of incubation.
# [2] = test system: Trichophyton mentagrophytes DSM 4870; assay: MIC against clinical fungi, PD broth dilution; conditions: 25-27° C., approximately 40 hours
# Description: as §1, §2
# [3] = test system: Cryptococcus neoformans DSM 11959; assay: MIC against clinical fungi, PD broth dilution; conditions: 25-27° C., approximately 40 hours
# Description: as §1, §2
# [4] = test system: Candida glabrata DSM 11226; assay: MIC against clinical fungi, PD broth dilution; conditions: 30° C., approximately 40 hours
# Description: as §1, §2
# [5] = test system: Pichia pastoris ATCC 201178; assay: MIC against clinical fungi, PD broth dilution; conditions: 30° C., approximately 40 hours
# Description: as §1, §2
# [6] = test system: Aspergillus niger ATCC9642; assay: MIC against clinical fungi, PD broth dilution; conditions: 30° C., approximately 40 hours
# Description: as §1, §2
# [7] = test system: Candida albicans ATCC 10231; assay: MIC against clinical fungi, PD broth dilution; conditions: 25-27° C., approximately 40 hours
# Description: as §1, §2
# [8] = test system: Saccharomyces cerevisiae DSM 1333; assay: MIC against clinical fungi, PD broth dilution; conditions: 30° C., approximately 40 hours
# Description: as §1, §2
# [9] = test system: Pichia pastoris ATCC 20864; assay: MIC against clinical fungi, PD broth dilution; conditions: 30° C., approximately 40 hours
# Description: as §1, §2
# [10] = test system: Candida albicans ATCC 18804; assay: MIC against clinical fungi, PD broth dilution; conditions: 25-27° C., approximately 40 hours
# Description: as §1, §2
# [11] = test system: Candida albicans ATCC 28517; assay: MIC against clinical fungi, PD broth dilution; conditions: 25-27° C., approximately 40 hours
# Description: as §1, §2
# [12] = test system: Citrobacter freundii ATCC 8090; assay: MIC, NCCLS/CLSI M7-A6 dilution susceptibility test; conditions: average of two independent evaluations
# Description: (§3) The antimicrobial peptide shown as amino acids 1 to 21 of SEQ ID NO: 2 was prepared synthetically. The Minimal Inhibitory Concentration (MIC) was determined to test for the antimicrobial activity of Arenicin following the NCCLS guidelines from CLSI (Clinical and Laboratory Standards Institute; formerly known as National Committee for Clinical and Laboratory Standards)—protocol M7-A6, Vol. 20, No. 2: Methods for Dilution Antimicrobial Susceptibility Tests for Bacteria That Grow Aerobically.
# (§4) The antimicrobial peptide of the invention was tested against 12 bacterial strains obtained from the American Type Culture Collection (ATCC). The results in Table 1 are average values of two independent evaluations.
# [13] = test system: Aeromonas salmonicida ATCC 14174; assay: MIC, NCCLS/CLSI M7-A6 dilution susceptibility test; conditions: average of two independent evaluations
# Description: as §3, §4
# [14] = test system: Pseudomonas aeruginosa ATCC 27853; assay: MIC, NCCLS/CLSI M7-A6 dilution susceptibility test; conditions: average of two independent evaluations
# Description: as §3, §4
# [15] = test system: Stenotrophomonas maltophlila ATCC 13637; assay: MIC, NCCLS/CLSI M7-A6 dilution susceptibility test; conditions: average of two independent evaluations
# Description: as §3, §4
# [16] = test system: Pseudomonas aeruginosa ATCC 9027; assay: MIC, NCCLS/CLSI M7-A6 dilution susceptibility test; conditions: average of two independent evaluations
# Description: as §3, §4
# [17] = test system: Enterobacter aerogenes ATCC 13048; assay: MIC, NCCLS/CLSI M7-A6 dilution susceptibility test; conditions: average of two independent evaluations
# Description: as §3, §4
# [18] = test system: Shigella sonnei ATCC 11060; assay: MIC, NCCLS/CLSI M7-A6 dilution susceptibility test; conditions: average of two independent evaluations
# Description: as §3, §4
# [19] = test system: Escherichia coli ATCC 25922; assay: MIC, NCCLS/CLSI M7-A6 dilution susceptibility test; conditions: average of two independent evaluations
# Description: as §3, §4
# [20] = test system: Escherichia coli ATCC 25404; assay: MIC, NCCLS/CLSI M7-A6 dilution susceptibility test; conditions: average of two independent evaluations
# Description: as §3, §4
# [21] = test system: Acinetobacter iwoffii ATCC 15309; assay: MIC, NCCLS/CLSI M7-A6 dilution susceptibility test; conditions: average of two independent evaluations
# Description: as §3, §4
# [22] = test system: Moraxella catarrhalis ATCC 25238; assay: MIC, NCCLS/CLSI M7-A6 dilution susceptibility test; conditions: average of two independent evaluations
# Description: as §3, §4
# [23] = test system: Enterobacter cloacae ATCC 13047; assay: MIC, NCCLS/CLSI M7-A6 dilution susceptibility test; conditions: average of two independent evaluations
# Description: as §3, §4
substance,measurement,setting,value
"Arenicin: antimicrobial polypeptide shown as amino acids 1 to 21 of SEQ ID NO: 2 (Arenicola marina), prepared synthetically (MGYSMNIALVYATVLIGVLHV; listed as Arenicola marina)",MIC,[1],2 micrograms/mL
same,MIC,[2],8 micrograms/mL
same,MIC,[3],1 microgram/mL
same,MIC,[4],16 micrograms/mL
same,MIC,[5],4 micrograms/mL
same,MIC,[6],8 micrograms/mL
same,MIC,[7],4 micrograms/mL
same,MIC,[8],8 micrograms/mL
same,MIC,[9],2 micrograms/mL
same,MIC,[10],8 micrograms/mL
same,MIC,[11],8 micrograms/mL
same,MIC,[12],1 microgram/mL
same,MIC,[13],2 micrograms/mL
same,MIC,[14],0.5 microgram/mL
same,MIC,[15],1 microgram/mL
same,MIC,[16],1 microgram/mL
same,MIC,[17],1 microgram/mL
same,MIC,[18],0.5 microgram/mL
same,MIC,[19],0.25 microgram/mL
same,MIC,[20],0.5 microgram/mL
same,MIC,[21],0.25 microgram/mL
same,MIC,[22],<0.06 microgram/mL
same,MIC,[23],1 microgram/mL
